Read-outs that look alike come from different tables or passages of the source. Marks after values point to notes of the source that are not given here.
Experiments:
[1] = system: hiPSC-derived neurons co-cultured with human primary astrocytes in 2D; experiment: Ca2+ transient oscillation assay (FDSS), 2D co-culture; format: cell-based; conditions: for effect on peak number / Ca2+ neuronal oscillations, in words: 2D format; for activation at 11.11 µM / activation at 33.33 µM / activation at 100 µM / activation at 300 µM / activation at 0.37 µM / activation at 1.11 µM / activation at 3.33 µM / activation at 10 µM: Homo sapiens, 1 h; for activation at 11.11 µM / activation at 33.33 µM / activation at 100 µM / activation at 300 µM / activation at 0.37 µM / activation at 1.11 µM / activation at 3.33 µM / activation at 10 µM / Area under the curve - 2D Mean / Peak Number—2D Mean / Peak amplitude - 2D Mean / Peak width - 2D Mean / Peak-to-peak interval - 2D Mean: 60 min
Summary of the method: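 Cultures were 10,000 CW50065 hiPSC excitatory neurons plus 2500 primary human astrocytes per well. Recordings used Cal-520 dye in HBSS/HEPES/glucose at 37 °C, with a 470/540 nm read at 2 Hz. Oscillations were stabilized with 0.04% DMSO, read for 20 min, then read again 60 min after compound addition (final DMSO 0.1%).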

[2] = system: hiPSC-derived neurons co-cultured with human primary astrocytes in 3D; experiment: Ca2+ transient oscillation assay (FDSS), 3D spheroids; format: cell-based; conditions: for Area under the curve - 3D Mean / Peak Number—3D Mean / Peak amplitude - 3D Mean / Peak width - 3D Mean / Peak-to-peak interval - 3D Mean: 60 min
Summary of the method: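 Fura-2 fluorescence was read twice for 20 min each: a baseline 10 min after 0.04% DMSO, and again 60 min after compound addition at nominal final concentration. The 3D co-cultures (1:1 hiPSC neurons from a donor and human astrocytes, 8000 each) matured 5 weeks in BrainPhys medium after a 1-week differentiation.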

[3] = ref PharmaPendium, cited from earlier work
[4] = read-out: Area under the curve - 2D Mean
[5] = read-out: Peak amplitude - 2D Mean
[6] = read-out: Peak-to-peak interval - 2D Mean
[7] = Table 1, peak plasma concentration in men, free therapeutic Cmax
[8] = Table 2, highest plasma concentration in humans after the therapeutic dose
[9] = concentration printed with the symbol

Cn1c(=O)c2[nH]cnc2n(C)c1=O [Theophylline]
effect on peak number / Ca2+ neuronal oscillations, in words [1]: significantly increased peak number
activation at 11.11 µM [1, 4]: 32.3%
activation at 11.11 µM ([1]; read-out: Peak Number—2D Mean): -5.7%
activation at 11.11 µM [1, 5]: 12.7%
activation at 11.11 µM ([1]; read-out: Peak width - 2D Mean): 22.8%
activation at 11.11 µM [1, 6]: 24.3%
activation at 33.33 µM [1, 4]: 41.7%
activation at 33.33 µM ([1]; read-out: Peak Number—2D Mean): 24.7%
activation at 33.33 µM [1, 5]: 15.3%
activation at 33.33 µM ([1]; read-out: Peak width - 2D Mean): 31.2%
activation at 33.33 µM [1, 6]: -5.2%
activation at 100 µM [1, 4]: 29.7%
activation at 100 µM ([1]; read-out: Peak Number—2D Mean): 39.3%
activation at 100 µM [1, 5]: 10%
activation at 100 µM ([1]; read-out: Peak width - 2D Mean): 24.3%
activation at 100 µM [1, 6]: -26.3%
activation at 300 µM [1, 4]: 72.8%
activation at 300 µM ([1]; read-out: Peak Number—2D Mean): 118%
activation at 300 µM [1, 5]: 6%
activation at 300 µM ([1]; read-out: Peak width - 2D Mean): 113%
activation at 300 µM [1, 6]: -46.8%
Area under the curve - 3D Mean ([2]; 11.11 µM): 156.1 % change from baseline
Peak Number—3D Mean ([2]; 11.11 µM): 2.0 % change from baseline
Peak amplitude - 3D Mean ([2]; 11.11 µM): 121.2 % change from baseline
Peak width - 3D Mean ([2]; 11.11 µM): 11.1 % change from baseline
Peak-to-peak interval - 3D Mean ([2]; 11.11 µM): −4.0 % change from baseline
Area under the curve - 3D Mean ([2]; 33.33 µM): 171.1 % change from baseline
Peak Number—3D Mean ([2]; 33.33 µM): 53.5 * % change from baseline
Peak amplitude - 3D Mean ([2]; 33.33 µM): 142.1 % change from baseline
Peak width - 3D Mean ([2]; 33.33 µM): 12.2 % change from baseline
Peak-to-peak interval - 3D Mean ([2]; 33.33 µM): −21.2 % change from baseline
Area under the curve - 3D Mean ([2]; 100 µM): 148.8 % change from baseline
Peak Number—3D Mean ([2]; 100 µM): 78.1 * % change from baseline
Peak amplitude - 3D Mean ([2]; 100 µM): 99.6 % change from baseline
Peak width - 3D Mean ([2]; 100 µM): 21.3 % change from baseline
Peak-to-peak interval - 3D Mean ([2]; 100 µM): −37.1 % change from baseline
Area under the curve - 3D Mean ([2]; 300 µM): 134.2 % change from baseline
Peak Number—3D Mean ([2]; 300 µM): 114.2 * % change from baseline
Peak amplitude - 3D Mean ([2]; 300 µM): 89.4 % change from baseline
Peak width - 3D Mean ([2]; 300 µM): 29.3 % change from baseline
Peak-to-peak interval - 3D Mean ([2]; 300 µM): −45.7 % change from baseline
Free Cmax [3, 7]: 8000 to 15000 nM
Free Cmax [3, 8]: 8000 to 15000 nM

Nc1ccncc1 [4-AP, 4-Aminopyridine]
effect on peak number / Ca2+ neuronal oscillations, in words [1]: significantly increased peak number
response of positive controls on Ca2+ transient oscillations ([1]; 2D, 4-AP 30 µM, kainic acid 100 µM): significant responses
change of Ca2+ neuronal oscillations (Figure 1) ([1]; 4-AP at 30 µM, kainic acid at 10 µM): large increases
activation at 0.37 µM [1, 4]: 39.5%
activation at 0.37 µM ([1]; read-out: Peak Number—2D Mean): 9%
activation at 0.37 µM [1, 5]: 13.3%
activation at 0.37 µM ([1]; read-out: Peak width - 2D Mean): 34%
activation at 0.37 µM [1, 6]: -13%
activation at 1.11 µM ([1]; 1.11 µM, read-out: Area under the curve - 2D Mean): 18.7%
activation at 1.11 µM ([1]; 1.11 µM, read-out: Peak Number—2D Mean): 70.3%
activation at 1.11 µM ([1]; 1.11 µM, read-out: Peak amplitude - 2D Mean): 7.8%
activation at 1.11 µM ([1]; 1.11 µM, read-out: Peak width - 2D Mean): 14.3%
activation at 1.11 µM ([1]; 1.11 µM, read-out: Peak-to-peak interval - 2D Mean): -29.8%
activation at 3.33 µM ([1]; 3.33 µM, read-out: Area under the curve - 2D Mean): 17.6%
activation at 3.33 µM ([1]; 3.33 µM, read-out: Peak Number—2D Mean): 85.8%
activation at 3.33 µM ([1]; 3.33 µM, read-out: Peak amplitude - 2D Mean): 10.4%
activation at 3.33 µM ([1]; 3.33 µM, read-out: Peak width - 2D Mean): 12.6%
activation at 3.33 µM ([1]; 3.33 µM, read-out: Peak-to-peak interval - 2D Mean): -42.4%
activation at 10 µM ([1]; 10 µM, read-out: Area under the curve - 2D Mean): 1.3%
activation at 10 µM ([1]; 10 µM, read-out: Peak Number—2D Mean): 110%
activation at 10 µM ([1]; 10 µM, read-out: Peak amplitude - 2D Mean): 8.5%
activation at 10 µM ([1]; 10 µM, read-out: Peak width - 2D Mean): -6.3%
activation at 10 µM ([1]; 10 µM, read-out: Peak-to-peak interval - 2D Mean): -49.8%
Area under the curve - 3D Mean ([2]; 0.37 µM): 53.7 % change from baseline
Peak Number—3D Mean ([2]; 0.37 µM): 16.7 % change from baseline
Peak amplitude - 3D Mean ([2]; 0.37 µM): 44.3 % change from baseline
Peak width - 3D Mean ([2]; 0.37 µM): 2.8 % change from baseline
Peak-to-peak interval - 3D Mean ([2]; 0.37 µM): −9.2 % change from baseline
Area under the curve - 3D Mean ([2]; 1.11 µM): 54.1 % change from baseline
Peak Number—3D Mean ([2]; 1.11 µM): 62.4 * % change from baseline
Peak amplitude - 3D Mean ([2]; 1.11 µM): 39.6 % change from baseline
Peak width - 3D Mean ([2]; 1.11 µM): 7.7 % change from baseline
Peak-to-peak interval - 3D Mean ([2]; 1.11 µM): −24.1 % change from baseline
Area under the curve - 3D Mean ([2]; 3.33 µM): 97.2 % change from baseline
Peak Number—3D Mean ([2]; 3.33 µM): 24.1 * % change from baseline
Peak amplitude - 3D Mean ([2]; 3.33 µM): 46.1 % change from baseline
Peak width - 3D Mean ([2]; 3.33 µM): 35.1 % change from baseline
Peak-to-peak interval - 3D Mean ([2]; 3.33 µM): −17.6 % change from baseline
Area under the curve - 3D Mean ([2]; 10 µM): 72.3 % change from baseline
Peak Number—3D Mean ([2]; 10 µM): 89.0 ** % change from baseline
Peak amplitude - 3D Mean ([2]; 10 µM): 42.8 % change from baseline
Peak width - 3D Mean ([2]; 10 µM): 21.4 % change from baseline
Peak-to-peak interval - 3D Mean ([2]; 10 µM): −47.2 % change from baseline
response of positive controls on Ca2+ transient oscillations ([2]; 3D, 4-AP 30 µM, kainic acid 100 µM): significant responses
Free Cmax [3, 7]: 25 to 75 nM
Free Cmax [3, 8]: 25 to 75 nM

N[C@@H](CCC(=O)O)C(=O)O [Glutamate]
Area under the curve - 2D Mean ([1]; 1.11 µM): 5.8 % change from baseline
Peak Number—2D Mean ([1]; 1.11 µM): −9.3 % change from baseline
Peak amplitude - 2D Mean ([1]; 1.11 µM): −8.5 % change from baseline
Peak width - 2D Mean ([1]; 1.11 µM): −3.4 % change from baseline
Peak-to-peak interval - 2D Mean ([1]; 1.11 µM): −2.2 % change from baseline
Area under the curve - 2D Mean ([1]; 3.33 µM): −13.0 % change from baseline
Peak Number—2D Mean ([1]; 3.33 µM): −8.9 * % change from baseline
Peak amplitude - 2D Mean ([1]; 3.33 µM): −26.9 % change from baseline
Peak width - 2D Mean ([1]; 3.33 µM): −5.2 % change from baseline
Peak-to-peak interval - 2D Mean ([1]; 3.33 µM): −17.4 % change from baseline
Area under the curve - 2D Mean ([1]; 10 µM): −72.1 % change from baseline
Peak Number—2D Mean ([1]; 10 µM): −60.3 * % change from baseline
Peak amplitude - 2D Mean ([1]; 10 µM): −60.9 % change from baseline
Peak width - 2D Mean ([1]; 10 µM): −67.3 % change from baseline
Peak-to-peak interval - 2D Mean ([1]; 10 µM): 96.3 % change from baseline
Area under the curve - 2D Mean ([1]; 30 µM): −100.0 % change from baseline
Peak Number—2D Mean ([1]; 30 µM): −100.0 * % change from baseline
Peak amplitude - 2D Mean ([1]; 30 µM): −100.0 % change from baseline
Peak width - 2D Mean ([1]; 30 µM): −100.0 % change from baseline
Peak-to-peak interval - 2D Mean ([1]; 30 µM): −100.0 % change from baseline
effect on peak number / Ca2+ neuronal oscillations, in words [1]: significantly reduced peak number
Ca²⁺ Transient Peak Number (2D), concentration in parentheses [1, 9]: 1 µM
Area under the curve - 3D Mean ([2]; 1.11 µM): 116.3 % change from baseline
Peak Number—3D Mean ([2]; 1.11 µM): −7.0 % change from baseline
Peak amplitude - 3D Mean ([2]; 1.11 µM): 85.4 % change from baseline
Peak width - 3D Mean ([2]; 1.11 µM): 12.5 % change from baseline
Peak-to-peak interval - 3D Mean ([2]; 1.11 µM): 11.6 % change from baseline
Area under the curve - 3D Mean ([2]; 3.33 µM): 129.9 % change from baseline
Peak Number—3D Mean ([2]; 3.33 µM): 12.3 % change from baseline
Peak amplitude - 3D Mean ([2]; 3.33 µM): 108.3 % change from baseline
Peak width - 3D Mean ([2]; 3.33 µM): 8.6 % change from baseline
Peak-to-peak interval - 3D Mean ([2]; 3.33 µM): 3.1 % change from baseline
Area under the curve - 3D Mean ([2]; 10 µM): 128.0 % change from baseline
Peak Number—3D Mean ([2]; 10 µM): 20.0 % change from baseline
Peak amplitude - 3D Mean ([2]; 10 µM): 103.9 % change from baseline
Peak width - 3D Mean ([2]; 10 µM): 8.1 % change from baseline
Peak-to-peak interval - 3D Mean ([2]; 10 µM): 0.4 % change from baseline
Area under the curve - 3D Mean ([2]; 30 µM): 116.3 % change from baseline
Peak Number—3D Mean ([2]; 30 µM): 8.4 % change from baseline
Peak amplitude - 3D Mean ([2]; 30 µM): 107.0 % change from baseline
Peak width - 3D Mean ([2]; 30 µM): 2.8 % change from baseline
Peak-to-peak interval - 3D Mean ([2]; 30 µM): −1.6 % change from baseline
effect on peak number of oscillations, in words ([2]; 3D-cultured): did not significantly change the peak number
Ca²⁺ Transient Peak Number (3D), concentration in parentheses [2, 9]: 30 µM
Free Cmax [3, 7]: 1000 to 2000 nM
Free Cmax [3, 8]: 1000 to 2000 nM

— publication PMC10046961, “High-Throughput Screening Assay for Detecting Drug-Induced Changes in Synchronized Neuronal Oscillations and Potential Seizure Risk Based on Ca^2+ Fluorescence Measurements in Human Induced Pluripotent Stem Cell (hiPSC)-Derived Neuronal 2D and 3D Cultures” (Cells, 2023)
